Substitutions are numbered along the chain they refer to.
Assays:
Assay type in all cases: binding
[1] = target: T1, dihydroorotase domain of human CAD (huDHOase) (Homo sapiens, UniProt P27708); assay: co-crystal structure ([…] Å)
T1 construct: residues 1456–1846 in human CAD protein, C-terminal His tag
T1 sequence (P27708 1456-1846): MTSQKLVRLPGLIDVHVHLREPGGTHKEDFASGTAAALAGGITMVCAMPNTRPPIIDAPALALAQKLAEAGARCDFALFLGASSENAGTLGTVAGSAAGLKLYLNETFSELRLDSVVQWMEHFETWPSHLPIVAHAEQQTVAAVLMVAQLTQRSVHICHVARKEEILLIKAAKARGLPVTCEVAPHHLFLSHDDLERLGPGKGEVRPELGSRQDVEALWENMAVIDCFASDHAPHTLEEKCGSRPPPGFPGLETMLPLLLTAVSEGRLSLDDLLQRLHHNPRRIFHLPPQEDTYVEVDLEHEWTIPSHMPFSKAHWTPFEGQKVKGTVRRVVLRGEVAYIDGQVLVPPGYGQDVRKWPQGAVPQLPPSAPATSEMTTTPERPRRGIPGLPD

[2] = target: T2, dihydroorotase domain of human CAD (huDHOase) (Homo sapiens, UniProt P27708, T1562A); assay: intrinsic fluorescence quenching titration
T2 construct: residues 1456–1846 in human CAD protein, C-terminal His tag
T2 sequence (P27708 1456-1846 T1562A): T1 sequence (P27708 1456-1846) with T107A

[3] = target: T3, dihydroorotase domain of human CAD (huDHOase) (Homo sapiens, UniProt P27708, R1475A); assay: intrinsic fluorescence quenching titration
T3 construct: residues 1456–1846 in human CAD protein, C-terminal His tag
T3 sequence (P27708 1456-1846 R1475A): T1 sequence (P27708 1456-1846) with R20A

[4] = target: T1, dihydroorotase domain of human CAD (huDHOase); assay: co-crystal structure ([…] Å) and intrinsic fluorescence quenching

Structure (SMILES) | co-crystal structure (1.64 Å) [1] | Kd [2] [µM] | Kd [3] [µM] | Kd [4] [µM]
O=C(O)CC(O)C(=O)O (stereo not shown) [malate] | This complexed structure revealed that malate is bound at the active site of huDHOase | – | – | –
O=c1[nH]cc(F)c(=O)[nH]1 [5-FU, 5-fluorouracil] | – | 146 ± 2.1 | 161.5 ± 1.6 | 91.2 ± 1.7

From article PMC9856072, “Complexed Crystal Structure of the Dihydroorotase Domain of Human CAD Protein with the Anticancer Drug 5-Fluorouracil” (Biomolecules, 2023)
